Results published in US10329309B2, “3-(3H-imidazo[4,5-B]pyridin-2-yl)-1H-pyrazolo[4,3-B]pyridines and therapeutic uses thereof” (Samumed, LLC, priority 2015, dated 2019).

How the values were obtained:
[1] = tested on: primary human mesenchymal stem cells (hMSCs); assay: Induction of chondrogenesis in primary human mesenchymal stem cells (nodule imaging, Rhodamine B/Nile Red); type: cell-based; conditions: hMSC chondrogenesis; for Emax: TGF-β3 as positive control, read-out: Max. Activity as % TGF-β3 activity; for EC50: concentration required to induce 50% levels of chondrogenesis vs TGF-β3, read-out: Conc (nM) of 50% TGF-β3 activity
How it was run: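 hMSCs (passage 3–6) in incomplete chondrogenic induction medium were dosed at 2700–10 nM (96-well, 6-point) or 5000–2.2 nM (384-well, 8-point), 0.03% DMSO final, for 6 days at 37° C. Fixed nodules stained with Rhodamine B/Nile Red were imaged; nodule area normalized to DMSO wells gave EC50, maximum activity and dose at maximum, with TGF-β3 (10 ng/mL) as positive control.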

IL-6 (THP-1 cells) = assay: Inhibition of IL-6 in LPS-stimulated THP-1 monocytes (HTRF); type: cell-based; conditions: Homo sapiens; for EC50: LPS 500 ng/mL, IL-6 by HTRF; for inhibition at 10 µM: LPS stimulated, IL-6, at 10 μM, read-out: percent inhibition at 10 μM (given for EC50 of >10 μM)
How it was run: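 IL-6 release was read as the HTRF 665/620 nm ratio after 22 h of 500 ng/mL LPS at 37 °C. Before stimulation, THP-1 cells kept 24 h in 1% FBS were exposed 2 h to a 10-point 1:3 compound series starting at 10 μM, in 0.1% DMSO. Four-parameter EC50s came from DMSO-normalized duplicates, with % inhibition at 10 μM reported beyond 10 μM.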

| Compound | Emax [1] | EC50 [1] | EC50 (IL-6 (THP-1 cells)) | inhibition at 10 µM (IL-6 (THP-1 cells)) |
| --- | --- | --- | --- | --- |
| CC(C)CC(=O)Nc1cncc(-c2ccc3[nH]nc(-c4nc5c(-c6ccc(Cl)s6)ccnc5[nH]4)c3n2)c1 [Compound 1037, N-(5-(3-(7-(5-chlorothiophen-2-yl)-3H-imidazo[4,5-b]pyridin-2-yl)-1H-pyrazolo [4,3-b]pyridin-5-yl)pyridin-3-yl)-3-methylbutanamide] | 67% | 10 nM | 5050 nM | – |
| CC(C)Nc1cncc(-c2ccc3[nH]nc(-c4nc5c(-c6cc(F)cc(NCCN(C)C)c6)ccnc5[nH]4)c3n2)c1 [Compound 460, N^1-(3-fluoro-5-(2-(5-(5-(isopropylamino)pyridin-3-yl)-1H-pyrazolo[4,3-b]pyridin-3-yl)-3H-imidazo[4,5-b]pyridin-7-yl)phenyl)-N^2,N^2-dimethylethane-1,2-diamine] | 63% | 30 nM | 1800 nM | – |
| FC1(F)CCN(Cc2cncc(-c3ccc4[nH]nc(-c5nc6c(-c7ccsc7)ccnc6[nH]5)c4n3)c2)C1 [Compound 306, 5-(5-((3,3-difluoropyrrolidin-1-yl)methyl)pyridin-3-yl)-3-(7-(thiophen-3-yl)-3H-imidazo[4,5-b]pyridin-2-yl)-1H-pyrazolo[4,3-b]pyridine] | 77% | 30 nM | 1330 nM | – |
| CCCC(=O)Nc1cncc(-c2ccc3[nH]nc(-c4nc5c(-c6ccsc6)ccnc5[nH]4)c3n2)c1 [Compound 297, N-(5-(3-(7-(thiophen-3-yl)-3H-imidazo[4,5-b]pyridin-2-yl)-1H-pyrazolo[4,3-b]pyridin-5-yl)pyridin-3-yl)butyramide] | 40% | – | 9910 nM | – |
| Cc1ccncc1-c1ccc2[nH]nc(-c3nc4c(-c5cc(F)cc(CNS(C)(=O)=O)c5)ccnc4[nH]3)c2n1 [Compound 481, N-(3-fluoro-5-(2-(5-(4-methylpyridin-3-yl)-1H-pyrazolo[4,3-b]pyridin-3-yl)-3H-imidazo[4,5-b]pyridin-7-yl)benzyl)methanesulfonamide] | 47% | – | 1030 nM | – |
| COc1cccc(-c2ccnc3[nH]c(-c4n[nH]c5ccc(-c6cncc(NC(=O)Cc7ccccc7)c6)nc45)nc23)c1 [Compound 1000, N-(5-(3-(7-(3-methoxyphenyl)-3H-imidazo[4,5-b]pyridin-2-yl)-1H-pyrazolo[4,3-b]pyridin-5-yl)pyridin-3-yl)-2-phenylacetamide] | 46% | – | > 10000 nM | 12.3% |
| c1cncc(-c2ccc3[nH]nc(-c4nc5c(-c6cccnc6)ccnc5[nH]4)c3n2)c1 [Compound 88, 5-(pyridin-3-yl)-3-(7-(pyridin-3-yl)-3H-imidazo[4,5-b]pyridin-2-yl)-1H-pyrazolo [4,3-b]pyridine] | 95% | 300 nM | > 10000 nM | 36.6% |
| Cc1ccncc1-c1ccc2[nH]nc(-c3nc4c(-c5ccsc5)ccnc4[nH]3)c2n1 [Compound 285, 5-(4-methylpyridin-3-yl)-3-(7-(thiophen-3-yl)-3H-imidazo[4,5-b]pyridin-2-yl)-1H-pyrazolo[4,3-b]pyridine] | 33% | – | 9880 nM | – |
| CCNCc1cncc(-c2ccc3[nH]nc(-c4nc5c(-c6ccoc6)ccnc5[nH]4)c3n2)c1 [Compound 314, N-((5-(3-(7-(furan-3-yl)-3H-imidazo[4,5-b]pyridin-2-yl)-1H-pyrazolo[4,3-b]pyridin-5-yl)pyridin-3-yl)methyl)ethanamine] | 32% | – | > 10000 nM | 23.9% |
| CN(C)CC(=O)Nc1cncc(-c2ccc3[nH]nc(-c4nc5c(-c6cccc(F)c6)ccnc5[nH]4)c3n2)c1 [Compound 969, 2-(dimethylamino)-N-(5-(3-(7-(3-fluorophenyl)-3H-imidazo[4,5-b]pyridin-2-yl)-1H-pyrazolo[4,3-b]pyridin-5-yl)pyridin-3-yl)acetamide] | 72% | 7 nM | > 10000 nM | 26.3% |
| O=C(Nc1cncc(-c2ccc3[nH]nc(-c4nc5c(-c6ccc(Cl)s6)ccnc5[nH]4)c3n2)c1)C1CCC1 [Compound 1056, N-(5-(3-(7-(5-chlorothiophen-2-yl)-3H-imidazo[4,5-b]pyridin-2-yl)-1H-pyrazolo [4,3-b]pyridin-5-yl)pyridin-3-yl)cyclobutanecarboxamide] | 102% | 10 nM | > 10000 nM | 40.6% |
| CC(C)Nc1cncc(-c2ccc3[nH]nc(-c4nc5c(-c6cccnc6)ccnc5[nH]4)c3n2)c1 [Compound 96, N-isopropyl-5-(3-(7-(pyridin-3-yl)-3H-imidazo[4,5-b]pyridin-2-yl)-1H-pyrazolo[4,3-b]pyridin-5-yl)pyridin-3-amine] | 113% | 10 nM | 424 nM | – |
| CN(C)c1cncc(-c2ccc3[nH]nc(-c4nc5c(-c6cccc(F)c6)ccnc5[nH]4)c3n2)c1 [Compound 7, 5-(3-(7-(3-fluorophenyl)-3H-imidazo[4,5-b]pyridin-2-yl)-1H-pyrazolo[4,3-b]pyridin-5-yl)-N,N-dimethylpyridin-3-amine] | 84% | 10 nM | 7500 nM | – |
| Cc1ccc(-c2ccnc3[nH]c(-c4n[nH]c5ccc(-c6cncc(NC(=O)C(C)C)c6)nc45)nc23)s1 [Compound 401, N-(5-(3-(7-(5-methylthiophen-2-yl)-3H-imidazo[4,5-b]pyridin-2-yl)-1H-pyrazolo[4,3-b]pyridin-5-yl)pyridin-3-yl)isobutyramide] | 66% | 1670 nM | 161 nM | – |
| Cc1ncc(-c2ccc3[nH]nc(-c4nc5c(-c6cccc(F)c6)ccnc5[nH]4)c3n2)n1C [Compound 509, 5-(1,2-dimethyl-1H-imidazol-5-yl)-3-(7-(3-fluorophenyl)-3H-imidazo[4,5-b]pyridin-2-yl)-1H-pyrazolo[4,3-b]pyridine] | 97% | 10 nM | > 10000 nM | 17.5% |
| O=C(Nc1cncc(-c2ccc3[nH]nc(-c4nc5c(-c6ccc(F)cc6)ccnc5[nH]4)c3n2)c1)C1CCC1 [Compound 49, N-(5-(3-(7-(4-fluorophenyl)-3H-imidazo[4,5-b]pyridin-2-yl)-1H-pyrazolo [4,3-b]pyridin-5-yl)pyridin-3-yl)cyclobutanecarboxamide] | 69% | 30 nM | > 10000 nM | 44% |
| CC(C)(C)C(=O)Nc1cncc(-c2ccc3[nH]nc(-c4nc5c(-c6ccc(Cl)s6)ccnc5[nH]4)c3n2)c1 [Compound 1043, N-(5-(3-(7-(5-chlorothiophen-2-yl)-3H-imidazo[4,5-b]pyridin-2-yl)-1H-pyrazolo [4,3-b]pyridin-5-yl)pyridin-3-yl)pivalamide] | 65% | 30 nM | > 10000 nM | 7.6% |
